Results from ChEMBL document CHEMBL5528028, “Discovery of benzopyridone cyanoacetates as new type of potential broad-spectrum antibacterial candidates” (Eur J Med Chem, 2024).
Activity calls are given as the source filed them. No cut-off for these calls is given here.

Key:
[1] = system: Calf thymus DNA; assay: Induction of calf thymus DNA double helix loss assessed as reduction in fluorescence intensity at 525 nm wavelength by acridine orange competition based assay; format: nucleic-acid assay; settings: Bos taurus
[2] = system: Staphylococcus aureus; assay: Antibacterial activity against Staphylococcus aureus ATCC 29213 assessed as decrease in relative metabolic activity at 4 times of MIC by Alamar Blue assays; format: functional, organism-based
[3] = system: Staphylococcus aureus; assay: Anti-biofilm activity against Staphylococcus aureus ATCC 29213 assessed as relative biofilm clearance rate by crystal violet staining based assay; format: functional, organism-based
[4] = system: Klebsiella pneumoniae; assay: Anti-biofilm activity against Klebsiella pneumonia assessed as relative biofilm clearance rate by crystal violet staining based assay; format: functional, organism-based
[5] = system: Cell membrane; assay: Induction of inner membrane permeability in Klebsiella pneumonia assessed as increase in fluorescence intensity by propidium iodide uptake based microscopic imaging assay; format: cell membranes; settings: Klebsiella pneumoniae
[6] = system: Cell membrane; assay: Induction of disruption of membrane integrity in Staphylococcus aureus ATCC 29213 assessed as leakage of intracellular proteins by Acid Blue 90 based assay; format: cell membranes
[7] = system: Klebsiella pneumoniae; assay: Induction of resistance development in Klebsiella pneumonia assessed as after 20 passages measured upto 4.5 times of MIC; format: functional
[8] = system: Calf thymus DNA; assay: Binding affinity to calf thymus DNA assessed as change in absorption measuring hyperchromism by UV-Vis absorption spectra analysis; format: nucleic-acid assay; settings: Bos taurus
[9] = system: Cell membrane; assay: Induction of outer membrane permeability in Klebsiella pneumonia assessed as increase in fluorescence intensity at 2 times of MIC by N-phenyl naphthylamine (NPN) dye based assay; format: cell membranes; settings: Klebsiella pneumoniae
[10] = system: Cell membrane; assay: Induction of cytoplasmic membrane depolarization in Staphylococcus aureus ATCC 29213 assessed as increase in fluorescence intensity at 2 times of MIC measured upto 40 mins by DiSC35 dye based fluorescence method; format: cell membranes
[11] = system: Klebsiella pneumoniae; assay: Induction of ROS generation in Klebsiella pneumonia assessed as increase in fluorescence intensity by DCFH-DA based microscopic analysis; format: functional, organism-based
[12] = system: Klebsiella pneumoniae; assay: Antibacterial activity against Klebsiella pneumonia assessed as decrease in relative metabolic activity at 4 times of MIC by Alamar Blue assays; format: functional, organism-based
[13] = system: Cell membrane; assay: Induction of disruption of membrane integrity in Klebsiella pneumonia assessed as leakage of intracellular proteins by Acid Blue 90 based assay; format: cell membranes; settings: Klebsiella pneumoniae
[14] = system: Staphylococcus aureus; assay: Induction of resistance development in Staphylococcus aureus ATCC 29213 assessed as after 20 passages measured upto 4.5 times of MIC; format: functional
[15] = system: Cell membrane; assay: Induction of cytoplasmic membrane depolarization in Klebsiella pneumonia assessed as increase in fluorescence intensity at 2 times of MIC measured upto 40 mins by DiSC35 dye based fluorescence method; format: cell membranes; settings: Klebsiella pneumoniae, DISRUPTING AGENT
[16] = system: Staphylococcus aureus; assay: Bactericidal activity against Staphylococcus aureus ATCC 29213 assessed as time dependent killing at 4 times of MIC measured at 8 hrs; format: functional, organism-based
[17] = system: Klebsiella pneumoniae; assay: Induction of ROS generation in Klebsiella pneumonia assessed as loss of GSH activity by Ellmans method; format: functional, organism-based
[18] = system: Cell membrane; assay: Induction of inner membrane permeability in Staphylococcus aureus ATCC 29213 assessed as increase in fluorescence intensity by propidium iodide uptake based microscopic imaging assay; format: cell membranes
[19] = system: Staphylococcus aureus; assay: Induction of ROS generation in Staphylococcus aureus ATCC 29213 assessed as loss of GSH activity by Ellmans method; format: functional, organism-based
[20] = system: Klebsiella pneumoniae; assay: Bactericidal activity against Klebsiella pneumonia assessed as time dependent killing at 4 times of MIC measured at 8 hrs; format: functional, organism-based
[21] = system: Staphylococcus aureus; assay: Induction of ROS generation in Staphylococcus aureus ATCC 29213 assessed as increase in fluorescence intensity by DCFH-DA based microscopic analysis; format: functional, organism-based
[22] = Initial plasma concentration in mouse at 10 mg/kg, iv; format: ADME, organism-based; settings: in vivo
[23] = system: Klebsiella pneumoniae; assay: In vivo anti-infective effect against Klebsiella pneumonia p1-6305014 infected in mouse model assessed as reduction bacterial growth at 15 mg/kg; format: functional
[24] = Cytotoxicity against human FHC cells assessed as cell viability at 8 ug/ml; format: toxicity, cell-based; settings: at 8 µg/mL, read-out: Activity
[25] = system: Escherichia coli; assay: Antibacterial activity against Escherichia coli ATCC 25922 assessed growth inhibition by micro broth dilution method; format: functional
[26] = Half life in mouse at 10 mg/kg, po; format: ADME, organism-based; settings: in vivo
[27] = AUC (0 to infinity) in mouse at 10 mg/kg, po; format: ADME, organism-based; settings: in vivo
[28] = Clearance in mouse at 10 mg/kg, po; format: ADME, organism-based; settings: in vivo
[29] = Tmax in mouse at 10 mg/kg, po; format: ADME, organism-based; settings: in vivo
[30] = system: Pseudomonas aeruginosa; assay: Antibacterial activity against Pseudomonas aeruginosa ATCC 27853 assessed growth inhibition by micro broth dilution method; format: functional
[31] = system: Staphylococcus aureus; assay: Anti-biofilm activity against Staphylococcus aureus ATCC 29213 assessed as relative biofilm clearance rate at 8 times of MIC by crystal violet staining based assay; format: functional
[32] = Volume of distribution at steady state in mouse at 10 mg/kg, iv; format: ADME, organism-based; settings: in vivo
[33] = AUMC (0 to t) in mouse at 10 mg/kg, po; format: ADME, organism-based; settings: in vivo
[34] = system: Enterococcus faecalis; assay: Antibacterial activity against Enterococcus faecalis assessed growth inhibition by micro broth dilution method; format: functional
[35] = system: Klebsiella pneumoniae; assay: In vivo anti-infective effect against Klebsiella pneumonia p1-6305014 infected in mouse model assessed as reduction bacterial growth at 5 mg/kg; format: functional
[36] = Oral bioavailability in mouse at 10 mg/kg; format: ADME, organism-based; settings: in vivo
[37] = Tmax in mouse at 10 mg/kg, iv; format: ADME, organism-based; settings: in vivo
[38] = system: Staphylococcus aureus; assay: Antibacterial activity against Staphylococcus aureus assessed growth inhibition by micro broth dilution method; format: functional
[39] = Cmax in mouse at 10 mg/kg, iv; format: ADME, organism-based; settings: in vivo
[40] = MRT (0 to t) in mouse at 10 mg/kg, po; format: ADME, organism-based; settings: in vivo
[41] = Half life in mouse at 10 mg/kg, iv; format: ADME, organism-based; settings: in vivo
[42] = Thermodynamic solubility of the compound in water; format: physicochemical; settings: read-out: Therm_solubility
[43] = system: Klebsiella pneumoniae; assay: Antibacterial activity against Klebsiella pneumonia assessed growth inhibition by micro broth dilution method; format: functional
[44] = AUC (0 to t) in mouse at 10 mg/kg, iv; format: ADME, organism-based; settings: in vivo
[45] = system: Staphylococcus aureus; assay: Antibacterial activity against methicillin-resistant Staphylococcus aureus assessed growth inhibition by micro broth dilution method; format: functional
[46] = Cytotoxicity against human NOK cells assessed as cell viability at 8 ug/ml; format: toxicity, cell-based; settings: nok-si, dose 8 µg/ml
[47] = system: Staphylococcus aureus; assay: Antibacterial activity against Staphylococcus aureus ATCC 25923 assessed growth inhibition by micro broth dilution method; format: functional
[48] = system: Escherichia coli; assay: Antibacterial activity against Escherichia coli assessed growth inhibition by micro broth dilution method; format: functional
[49] = AUMC (0 to infinity) in mouse at 10 mg/kg, iv; format: ADME, organism-based; settings: in vivo
[50] = system: Erythrocyte; assay: Hemolytic activity in human RBC incubated measured upto 128 ug/ml; format: toxicity, cell-based; settings: dose < 128 µg/ml
[51] = MRT (0 to infinity) in mouse at 10 mg/kg, iv; format: ADME, organism-based; settings: in vivo
[52] = Clearance in mouse at 10 mg/kg, iv; format: ADME, organism-based; settings: in vivo
[53] = system: Klebsiella pneumoniae; assay: Anti-biofilm activity against Klebsiella pneumonia assessed as relative biofilm clearance rate at 8 times of MIC by crystal violet staining based assay; format: functional
[54] = Apparent volume of distribution in mouse at 10 mg/kg, po; format: ADME, organism-based; settings: in vivo
[55] = AUC (0 to t) in mouse at 10 mg/kg, po; format: ADME, organism-based; settings: in vivo
[56] = Cmax in mouse at 10 mg/kg, po; format: ADME, organism-based; settings: in vivo
[57] = system: Acinetobacter baumannii; assay: Antibacterial activity against Acinetobacter baumannii assessed growth inhibition by micro broth dilution method; format: functional
[58] = MRT (0 to t) in mouse at 10 mg/kg, iv; format: ADME, organism-based; settings: in vivo
[59] = AUMC (0 to t) in mouse at 10 mg/kg, iv; format: ADME, organism-based; settings: in vivo
[60] = AUC (0 to infinity) in mouse at 10 mg/kg, iv; format: ADME, organism-based; settings: in vivo
[61] = MRT (0 to infinity) in mouse at 10 mg/kg, po; format: ADME, organism-based; settings: in vivo
[62] = AUMC (0 to infinity) in mouse at 10 mg/kg, po; format: ADME, organism-based; settings: in vivo
[63] = system: Pseudomonas aeruginosa; assay: Antibacterial activity against Pseudomonas aeruginosa assessed growth inhibition by micro broth dilution method; format: functional
[64] = system: Staphylococcus aureus; assay: Antibacterial activity against Staphylococcus aureus ATCC 29213 assessed growth inhibition by micro broth dilution method; format: functional

CCOC(=O)c1cn(Cc2ccc(Cl)c(Cl)c2)c2cc(C(C#N)C(=O)OCC)c(F)cc2c1=O (centres undefined)
Activity [1]: Active | Activity [2]: Active | Activity [3]: Dose-Dependent Effect | Activity [4]: Dose-Dependent Effect | Activity [5]: Dose-Dependent Effect | Activity [6]: Dose-Dependent Effect | Activity [7]: Active | Activity [8]: Active | Activity [9]: Dose-Dependent Effect | Activity [10]: Active | Activity [11]: Dose-Dependent Effect | Activity [12]: Active | Activity [13]: Dose-Dependent Effect | Activity [14]: Active | Activity [15]: Active | Activity [16]: Active | Activity [17]: Dose-Dependent Effect | Activity [18]: Dose-Dependent Effect | Activity [19]: Dose-Dependent Effect | Activity [20]: Active | Activity [21]: Dose-Dependent Effect

CCCCCCCCn1cc(C(=O)OCC)c(=O)c2cc(F)c([C-](C#N)C(=O)OCC)cc21.[Na+] (centres undefined)
C0 [22]: 1046 ng/mL | Activity [23]: 4 log10CFU | viability at 8 ug/ml [24]: 70% | MIC [25]: 0.25 µg/mL | half-life [26]: 133 min | AUC [27]: 241 ng·h/mL | CL/F [28]: 698 mL/min/kg | Tmax [29]: 30 min | MIC [30]: 0.5 µg/mL | Activity [31]: 70% | Vdss [32]: 1.976 L/kg | AUMCt [33]: 523 hr.hr.ng/ml | MIC [34]: 4 µg/mL | Activity [35]: 1.5 log10CFU | F [36]: 26.6% | Tmax [37]: 1.98 min | MIC [38]: 16 µg/mL | Cmax [39]: 549 ng/mL | MRT last [40]: 161 min | half-life [41]: 12 min | solubility thermodynamic [42]: 27.5 µg/mL | MIC [43]: 0.25 µg/mL | AUC(0-t) [44]: 89.3 ng·h/mL | MIC [45]: 8 µg/mL | Activity [46]: Non-Toxic | MIC [47]: 0.25 µg/mL | MIC [48]: 0.25 µg/mL | AUMC [49]: 15 hr.hr.ng/ml | Activity [50]: Non-Toxic | MRT inf [51]: 10.2 min | CL [52]: 191.07 mL/min/kg | Activity [53]: 70% | Vz [54]: 133.561 L/kg | AUC(0-t) [55]: 196 ng·h/mL | Cmax [56]: 89 ng/mL | MIC [57]: 0.25 µg/mL | MRT last [58]: 9 min | AUMCt [59]: 13.3 hr.hr.ng/ml | AUC [60]: 90.6 ng·h/mL | MRT [61]: 250 min | AUMC [62]: 1035 hr.hr.ng/ml | MIC [63]: 0.5 µg/mL | MIC [64]: 0.25 µg/mL
